The NIST ThermoML archive (doi:10.1021/je400835u)
± gives the expanded uncertainty stated by the source.

Experiment: xn = mol fraction of the nth substance listed
Settings: 100 kPa, Liquid; for viscosity: Falling or rolling sphere viscometry; for mass density: Vibrating tube method

CCCCC1CCCCC1 [butylcyclohexane] + CCCCCCCCCC
Settings	mass density, 293.15 K [kg/m3]	mass density, 298.15 K [kg/m3]	mass density, 303.15 K [kg/m3]	mass density, 308.15 K [kg/m3]	mass density, 313.15 K [kg/m3]	viscosity, 293.15 K [mPa·s]	viscosity, 298.15 K [mPa·s]	viscosity, 303.15 K [mPa·s]	viscosity, 308.15 K [mPa·s]	viscosity, 313.15 K [mPa·s]
x1 = 0.0508	733.71 ± 0.16	729.95 ± 0.16	726.17 ± 0.16	722.37 ± 0.16	718.56 ± 0.17	0.944 ± 0.012	0.879 ± 0.012	0.82 ± 0.012	0.767 ± 0.011	0.72 ± 0.011
x1 = 0.1001	736.83 ± 0.16	733.07 ± 0.16	729.29 ± 0.16	725.5 ± 0.16	721.69 ± 0.16	0.956 ± 0.012	0.89 ± 0.012	0.831 ± 0.012	0.778 ± 0.011	0.73 ± 0.011
x1 = 0.1992	743.19 ± 0.16	739.43 ± 0.16	735.66 ± 0.16	731.87 ± 0.16	728.07 ± 0.16	0.984 ± 0.012	0.914 ± 0.012	0.853 ± 0.012	0.798 ± 0.012	0.748 ± 0.011
x1 = 0.2994	749.74 ± 0.16	745.99 ± 0.16	742.22 ± 0.16	738.44 ± 0.16	734.64 ± 0.16	1.014 ± 0.012	0.94 ± 0.012	0.877 ± 0.012	0.819 ± 0.012	0.768 ± 0.011
x1 = 0.3996	756.42 ± 0.16	752.67 ± 0.16	748.91 ± 0.16	745.13 ± 0.16	741.34 ± 0.16	1.047 ± 0.013	0.969 ± 0.012	0.903 ± 0.012	0.842 ± 0.012	0.789 ± 0.012
x1 = 0.5002	763.27 ± 0.16	759.53 ± 0.16	755.76 ± 0.16	751.99 ± 0.16	748.2 ± 0.16	1.084 ± 0.013	1.003 ± 0.012	0.932 ± 0.012	0.869 ± 0.012	0.813 ± 0.012
x1 = 0.5955	769.88 ± 0.15	766.14 ± 0.16	762.38 ± 0.16	758.61 ± 0.16	754.83 ± 0.16	1.122 ± 0.013	1.037 ± 0.013	0.963 ± 0.012	0.897 ± 0.012	0.84 ± 0.012
x1 = 0.6988	777.19 ± 0.15	773.45 ± 0.15	769.7 ± 0.16	765.93 ± 0.16	762.15 ± 0.16	1.166 ± 0.013	1.078 ± 0.013	1.001 ± 0.012	0.931 ± 0.012	0.871 ± 0.012
x1 = 0.8012	784.6 ± 0.15	780.86 ± 0.15	777.11 ± 0.15	773.34 ± 0.16	769.57 ± 0.16	1.21 ± 0.013	1.121 ± 0.013	1.039 ± 0.013	0.966 ± 0.012	0.902 ± 0.012
x1 = 0.8998	791.88 ± 0.15	788.15 ± 0.15	784.4 ± 0.15	780.63 ± 0.15	776.86 ± 0.15	1.253 ± 0.014	1.159 ± 0.013	1.074 ± 0.013	0.998 ± 0.012	0.932 ± 0.012
x1 = 0.9497	795.63 ± 0.15	791.89 ± 0.15	788.14 ± 0.15	784.37 ± 0.15	780.61 ± 0.15	1.275 ± 0.014	1.178 ± 0.013	1.091 ± 0.013	1.013 ± 0.012	0.946 ± 0.012
x1 = 1	799.44 ± 0.15	795.7 ± 0.15	791.95 ± 0.15	788.19 ± 0.15	784.41 ± 0.15	1.296 ± 0.014	1.196 ± 0.013	1.107 ± 0.013	1.027 ± 0.013	0.958 ± 0.012

CCCCC1CCCCC1 [butylcyclohexane] + CCCCCCCCCCCC
Settings	mass density, 293.15 K [kg/m3]	mass density, 298.15 K [kg/m3]	mass density, 303.15 K [kg/m3]	mass density, 308.15 K [kg/m3]	mass density, 313.15 K [kg/m3]	viscosity, 293.15 K [mPa·s]	viscosity, 298.15 K [mPa·s]	viscosity, 303.15 K [mPa·s]	viscosity, 308.15 K [mPa·s]	viscosity, 313.15 K [mPa·s]
x1 = 0.0511	750.97 ± 0.16	747.36 ± 0.16	743.73 ± 0.16	740.1 ± 0.16	736.45 ± 0.16	1.492 ± 0.015	1.369 ± 0.014	1.258 ± 0.013	1.157 ± 0.013	1.07 ± 0.013
x1 = 0.0989	752.88 ± 0.16	749.26 ± 0.16	745.63 ± 0.16	741.99 ± 0.16	738.34 ± 0.16	1.486 ± 0.015	1.363 ± 0.014	1.251 ± 0.013	1.152 ± 0.013	1.067 ± 0.013
x1 = 0.2004	757.06 ± 0.15	753.44 ± 0.16	749.8 ± 0.16	746.15 ± 0.16	742.5 ± 0.16	1.467 ± 0.015	1.346 ± 0.014	1.238 ± 0.013	1.14 ± 0.013	1.056 ± 0.013
x1 = 0.3002	761.38 ± 0.15	757.75 ± 0.16	754.1 ± 0.16	750.45 ± 0.16	746.78 ± 0.16	1.45 ± 0.014	1.331 ± 0.014	1.224 ± 0.013	1.128 ± 0.013	1.047 ± 0.013
x1 = 0.4012	765.97 ± 0.15	762.34 ± 0.15	758.68 ± 0.16	755.02 ± 0.16	751.35 ± 0.16	1.431 ± 0.014	1.314 ± 0.014	1.21 ± 0.013	1.117 ± 0.013	1.036 ± 0.012
x1 = 0.5005	770.74 ± 0.15	767.1 ± 0.15	763.43 ± 0.15	759.76 ± 0.16	756.07 ± 0.16	1.415 ± 0.014	1.298 ± 0.014	1.196 ± 0.013	1.106 ± 0.013	1.026 ± 0.012
x1 = 0.6006	775.82 ± 0.15	772.16 ± 0.15	768.48 ± 0.15	764.8 ± 0.16	761.1 ± 0.16	1.393 ± 0.014	1.279 ± 0.014	1.18 ± 0.013	1.091 ± 0.013	1.013 ± 0.012
x1 = 0.7008	781.21 ± 0.15	777.53 ± 0.15	773.83 ± 0.15	770.13 ± 0.15	766.43 ± 0.16	1.373 ± 0.014	1.262 ± 0.014	1.165 ± 0.013	1.078 ± 0.013	1.002 ± 0.012
x1 = 0.7998	786.85 ± 0.15	783.16 ± 0.15	779.45 ± 0.15	775.73 ± 0.15	771.99 ± 0.16	1.351 ± 0.014	1.244 ± 0.013	1.15 ± 0.013	1.064 ± 0.013	0.99 ± 0.012
x1 = 0.8996	792.92 ± 0.15	789.21 ± 0.15	785.47 ± 0.15	781.73 ± 0.15	777.98 ± 0.15	1.331 ± 0.014	1.226 ± 0.013	1.134 ± 0.013	1.049 ± 0.013	0.978 ± 0.012
x1 = 0.9494	796.1 ± 0.15	792.38 ± 0.15	788.64 ± 0.15	784.9 ± 0.15	781.13 ± 0.15	1.32 ± 0.014	1.216 ± 0.013	1.126 ± 0.013	1.04 ± 0.013	0.969 ± 0.012
x1 = 1	799.44 ± 0.15	795.7 ± 0.15	791.95 ± 0.15	788.19 ± 0.15	784.41 ± 0.15	1.296 ± 0.014	1.196 ± 0.013	1.107 ± 0.013	1.027 ± 0.013	0.958 ± 0.012

CCCCC1CCCCC1 [butylcyclohexane] + CCCCCCCCCCCCCC
Settings	mass density, 293.15 K [kg/m3]	mass density, 298.15 K [kg/m3]	mass density, 303.15 K [kg/m3]	mass density, 308.15 K [kg/m3]	mass density, 313.15 K [kg/m3]	viscosity, 293.15 K [mPa·s]	viscosity, 298.15 K [mPa·s]	viscosity, 303.15 K [mPa·s]	viscosity, 308.15 K [mPa·s]	viscosity, 313.15 K [mPa·s]
x1 = 0.0516	764.33 ± 0.15	760.8 ± 0.15	757.26 ± 0.15	753.73 ± 0.16	750.2 ± 0.16	2.28 ± 0.019	2.052 ± 0.018	1.86 ± 0.017	1.694 ± 0.016	1.553 ± 0.015
x1 = 0.1	765.53 ± 0.15	762 ± 0.15	758.46 ± 0.15	754.92 ± 0.15	751.38 ± 0.16	2.234 ± 0.019	2.011 ± 0.018	1.823 ± 0.016	1.662 ± 0.016	1.523 ± 0.015
x1 = 0.2001	768.14 ± 0.15	764.6 ± 0.15	761.06 ± 0.15	757.51 ± 0.15	753.96 ± 0.16	2.135 ± 0.018	1.924 ± 0.017	1.746 ± 0.016	1.593 ± 0.015	1.463 ± 0.014
x1 = 0.2988	770.93 ± 0.15	767.38 ± 0.15	763.83 ± 0.15	760.27 ± 0.15	756.69 ± 0.16	2.037 ± 0.018	1.838 ± 0.017	1.67 ± 0.016	1.526 ± 0.015	1.401 ± 0.014
x1 = 0.4001	774.02 ± 0.15	770.46 ± 0.15	766.89 ± 0.15	763.31 ± 0.15	759.72 ± 0.16	1.934 ± 0.017	1.749 ± 0.016	1.592 ± 0.015	1.457 ± 0.014	1.341 ± 0.014
x1 = 0.498	777.26 ± 0.15	773.68 ± 0.15	770.08 ± 0.15	766.49 ± 0.15	762.88 ± 0.15	1.834 ± 0.017	1.662 ± 0.016	1.517 ± 0.015	1.391 ± 0.014	1.282 ± 0.014
x1 = 0.6006	780.95 ± 0.15	777.36 ± 0.15	773.74 ± 0.15	770.12 ± 0.15	766.49 ± 0.15	1.728 ± 0.016	1.571 ± 0.015	1.436 ± 0.014	1.32 ± 0.014	1.218 ± 0.013
x1 = 0.7005	784.9 ± 0.15	781.27 ± 0.15	777.63 ± 0.15	773.98 ± 0.15	770.33 ± 0.15	1.625 ± 0.015	1.481 ± 0.015	1.358 ± 0.014	1.25 ± 0.013	1.155 ± 0.013
x1 = 0.7999	789.23 ± 0.15	785.57 ± 0.15	781.9 ± 0.15	778.21 ± 0.15	774.53 ± 0.15	1.521 ± 0.015	1.391 ± 0.014	1.279 ± 0.014	1.18 ± 0.013	1.092 ± 0.013
x1 = 0.9002	794.07 ± 0.15	790.38 ± 0.15	786.66 ± 0.15	782.94 ± 0.15	779.22 ± 0.15	1.416 ± 0.014	1.299 ± 0.014	1.199 ± 0.013	1.109 ± 0.013	1.029 ± 0.013
x1 = 0.95	796.66 ± 0.15	792.94 ± 0.15	789.21 ± 0.15	785.48 ± 0.15	781.73 ± 0.15	1.363 ± 0.014	1.254 ± 0.014	1.159 ± 0.013	1.073 ± 0.013	0.998 ± 0.012
x1 = 1	799.44 ± 0.15	795.7 ± 0.15	791.95 ± 0.15	788.19 ± 0.15	784.41 ± 0.15	1.296 ± 0.014	1.196 ± 0.013	1.107 ± 0.013	1.027 ± 0.013	0.958 ± 0.012
